These results are taken from paper PMC10709440, “High-throughput ligand profile characterization in novel cell lines expressing seven heterologous insect olfactory receptors for the detection of volatile plant biomarkers” (Scientific Reports, 2023).

Assay in all cases: cell-based
Holding throughout (design): GCaMP6 calcium fluorescence in stable HEK293 OR+ORCO lines; peak dF normalised to 50 uM VUAA1 (=1)

Test [1] deals with T1, Drosophila OR85b (Drosophila melanogaster, UniProt Q9VHQ7).
T1 construct: expressed in transfected cells
T1 sequence (Q9VHQ7 1-390): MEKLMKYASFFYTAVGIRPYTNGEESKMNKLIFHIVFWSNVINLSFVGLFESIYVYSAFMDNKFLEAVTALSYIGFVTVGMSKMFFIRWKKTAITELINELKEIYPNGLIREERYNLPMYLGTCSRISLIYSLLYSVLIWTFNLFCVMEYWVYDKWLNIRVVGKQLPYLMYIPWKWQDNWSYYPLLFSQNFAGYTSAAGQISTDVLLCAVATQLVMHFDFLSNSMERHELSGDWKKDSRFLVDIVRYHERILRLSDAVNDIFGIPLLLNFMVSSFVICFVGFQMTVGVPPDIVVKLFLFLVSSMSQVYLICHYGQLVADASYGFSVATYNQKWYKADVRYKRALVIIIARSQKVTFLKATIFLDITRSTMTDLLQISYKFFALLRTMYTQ
T1 sequence (Q9VNB5 1-486 partner): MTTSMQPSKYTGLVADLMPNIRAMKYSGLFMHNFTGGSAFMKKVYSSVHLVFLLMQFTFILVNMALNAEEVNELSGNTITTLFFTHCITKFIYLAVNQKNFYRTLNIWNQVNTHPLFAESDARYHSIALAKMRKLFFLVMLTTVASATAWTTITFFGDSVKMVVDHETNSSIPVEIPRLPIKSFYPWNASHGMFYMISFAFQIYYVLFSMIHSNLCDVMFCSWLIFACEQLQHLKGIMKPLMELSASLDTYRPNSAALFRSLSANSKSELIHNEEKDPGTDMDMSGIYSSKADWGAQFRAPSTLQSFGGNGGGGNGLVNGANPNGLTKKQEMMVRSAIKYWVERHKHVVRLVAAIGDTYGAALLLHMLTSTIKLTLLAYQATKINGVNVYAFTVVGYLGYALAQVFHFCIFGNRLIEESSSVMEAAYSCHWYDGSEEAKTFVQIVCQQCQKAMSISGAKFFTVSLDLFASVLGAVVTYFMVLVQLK
The conditions noted are these: relative to 50 uM VUAA1 response, below 0.05 set to 0; for activity at 10 µM / activity at 100 µM / activity at 1 µM: HEK293, read-out: % activation; for % activation: agonist. The method, then:
(§1) Twelve thousand to 18,000 cells were plated into each well of a black wall, transparent bottom 384-well microplate (Greiner) 48 h or 72 h before the measurements and were simultaneously treated with 1 μg/mL doxycycline. […] The plate has 24 columns, thus we could record responses in up to eight different cell lines in each plate. On the day of the experiment, the growth medium was replaced with 20 µL assay buffer/well (140 mM NaCl, 5 mM KCl, 2 mM CaCl2, 1 mM MgCl2, 5 mM HEPES-Na, 20 mM glucose, pH 7.3, 340 mOsm). […] Baseline fluorescence (F0) was recorded for 5 s, after which 7 µL VOC buffer (140 mM NaCl, 5 mM KCl, 2 mM CaCl2, 1 mM MgCl2, 5 mM HEPES-Na, 31 mM glucose, 0.1% DMSO, pH 7.3, 340 mOsm) was injected into each well in one row and the fluorescence response was recorded for an additional 30 s, at a rate of one read/sec. VOC solutions (VOC buffer with 4× concentration of the final measured VOC concentration, 9 µL/well was injected) were measured on the same wells in a second round with the same protocol. Each individual concentration of a specific VOC sample was recorded in three wells for the same cell line on the same microplate. The raw data were exported in xls file format, F0 and FMAX values, and the fluorescence intensity changes (∆F) were calculated in Excel (Microsoft) (Supplementary file Data summary.xlsx) using the following equation: ΔF=FMAX-F0/F0 (see also Fig. 1C). On each plate, we recorded the response of each cell line to 50 µM VUAA1. The average of these ∆F values of each cell line were used to calculate the VUAA1-normalized values for the rest of the plate, by dividing VOC response ∆F values by the average VUAA1 response ∆F value of the corresponding OR cell line. Each VOC-OR combination was measured three times as tec The recorded FMAX, F0, ∆F, VUAA1-normalized ∆F values, as well as the OR name, the name of the tested sample, and the final concentration for each well were copied into supplementary file Data summary.xlsx, that was used to summarize all the plates recorded. Here, the averages of the measurements were calculated for each receptor-VOC-concentration combination. […] Each VOC was measured at 1, 10, and 100 µM final concentration on each receptor. VUAA1-normalized response was calculated as described in methods.

In test [2] the target is T2, Drosophila OR47a (Drosophila melanogaster, UniProt P81921).
T2 construct: expressed in transfected cells
T2 sequence (P81921 1-385): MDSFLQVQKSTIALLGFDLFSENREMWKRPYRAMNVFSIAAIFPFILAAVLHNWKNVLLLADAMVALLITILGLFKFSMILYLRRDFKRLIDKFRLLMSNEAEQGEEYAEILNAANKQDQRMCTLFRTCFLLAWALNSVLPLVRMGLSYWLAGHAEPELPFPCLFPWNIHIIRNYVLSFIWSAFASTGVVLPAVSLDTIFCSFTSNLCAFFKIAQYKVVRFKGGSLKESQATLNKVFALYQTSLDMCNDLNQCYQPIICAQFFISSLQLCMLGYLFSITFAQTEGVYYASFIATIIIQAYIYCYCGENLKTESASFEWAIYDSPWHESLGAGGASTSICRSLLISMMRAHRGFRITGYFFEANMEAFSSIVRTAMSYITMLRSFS
T2 sequence (Q9VNB5 1-486 partner): T1 sequence (Q9VNB5 1-486 partner)
The conditions noted are these: relative to 50 uM VUAA1 response, below 0.05 set to 0; for activity at 1 µM / activity at 100 µM / activity at 10 µM: HEK293, read-out: % activation; for % activation: 10 µM, agonist, 10 / OR47a. The method, then:
as §1

For test [3], the target named is T3, Drosophila OR10a (Drosophila melanogaster, UniProt Q9VYZ1).
T3 construct: expressed in transfected cells
T3 sequence (Q9VYZ1 1-406): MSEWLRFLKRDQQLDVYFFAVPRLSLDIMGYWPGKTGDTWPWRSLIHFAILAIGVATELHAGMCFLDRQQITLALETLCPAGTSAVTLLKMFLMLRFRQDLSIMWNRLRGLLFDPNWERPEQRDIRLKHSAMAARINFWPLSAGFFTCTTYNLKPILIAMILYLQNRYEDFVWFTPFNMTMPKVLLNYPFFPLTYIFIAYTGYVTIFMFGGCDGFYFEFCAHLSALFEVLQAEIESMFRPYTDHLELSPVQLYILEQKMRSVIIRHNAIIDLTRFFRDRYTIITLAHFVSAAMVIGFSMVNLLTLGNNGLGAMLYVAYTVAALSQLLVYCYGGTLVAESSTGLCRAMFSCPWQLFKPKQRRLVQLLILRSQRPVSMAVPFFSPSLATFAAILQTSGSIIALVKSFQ
T3 sequence (Q9VNB5 1-486 partner): T1 sequence (Q9VNB5 1-486 partner)
The following applies: relative to 50 uM VUAA1 response, below 0.05 set to 0; for activity at 1 µM / activity at 10 µM / activity at 100 µM: HEK293, read-out: % activation; for % activation: agonist. Here is the method:
as §1

As to `Cc1ccc(C)cc1` [p-xylene], in test [1], the activity at 10 µM was 15.2% and the activity at 100 µM came out at 6.07%.
`Cc1ccc(C(C)C)cc1` [p-cymene]: in test [1], the activity at 10 µM amounted to 11.7% and the activity at 100 µM worked out at 9.05%.
With `CC/C=C\CCOC(C)=O` [Z-3-hexenyl acetate], the activity at 1 µM in test [1] worked out at 14.5%.
Regarding `C=C1CCC2(C(C)C)CC12` (stereo not drawn) [sabinene], in test [1], the activity at 1 µM was 6.47% and the activity at 100 µM is 8.7%.
In the case of `C=CC(C)(O)CCC=C(C)C` (stereo not drawn) [linalool], the activity at 100 µM in test [1] stood at 6.3%.
Regarding `CCCCCCCCCCCCCC` [tetradecane], in test [1], the activity at 1 µM came out at 9.72% and the activity at 10 µM worked out at 8.44%.
For the compound `C=C(C)[C@H]1CC=C(C)CC1` [(R)-(+)-limonene], the activity at 1 µM in test [2] and in test [3] was 0% in each case. In addition, the activity at 100 µM in test [2] amounted to 0%. Besides, the “% activation” value in test [2] is recorded as 0.05286%; in test [3] (10 µM, 10 / OR10a), 0.1196%; in test [1] (10 µM, 10 / OR85b), 0%; in test [1] (100 µM, 100 / OR85b) it was 0%; in test [1] (1 / OR85b, 1 µM), 0%.
Turning to `COC(=O)c1ccccc1` [methyl benzoate], the activity at 100 µM in test [2] was 5.95%.
As for `Cc1cccc(C)c1` [m-xylene], the activity at 100 µM in test [1] was 8.8%.
Take `OCCc1ccccc1` [phenethyl alcohol]: in test [2], the activity at 1 µM was 5.64%, the activity at 10 µM was 6.44% and the activity at 100 µM stood at 5.7%. In test [1], the activity at 1 µM is 9.88% and the activity at 10 µM was determined as 7.58%.
Take `C=C1CC[C@@]23C[C@@H]1C(C)(C)[C@@H]2CC[C@H]3C` [(+)-beta-cedrene]: in test [2], the activity at 1 µM was 0%, the activity at 10 µM turned out to be 0% and the activity at 100 µM was 0%. Further, in test [3], the activity at 1 µM was found to be 0%, the activity at 10 µM turned out to be 0% and the activity at 100 µM worked out at 0%. Besides, in test [1], the activity at 1 µM turned out to be 0%, the activity at 10 µM amounted to 0% and the activity at 100 µM was found to be 0%.
With `CC1=CCC[C@@]2(C)[C@@H]3CC[C@]12CC3(C)C` [(−)-α-neoclovene], in test [3], the activity at 10 µM was found to be 13.1% and the activity at 100 µM worked out at 12.4%.
In the case of `C=C(C)C1CCC2(C)OC2C1` (single isomer, unassigned; (+)) [(+)-limonene oxide], in test [2], the activity at 1 µM was determined as 0%, the activity at 10 µM came to 0% and the activity at 100 µM is 0%. Besides, in test [3], the activity at 1 µM came out at 0%, the activity at 10 µM amounted to 0% and the activity at 100 µM turned out to be 0%. Further, in test [1], the activity at 1 µM worked out at 0%, the activity at 10 µM came to 0% and the activity at 100 µM was determined as 0%.
Turning to `CCCOC(C)=O` [propyl acetate], in test [1], the activity at 1 µM was 5.38%.
In the case of `C=C1[C@H]2CC[C@@H]3[C@H]2C(C)(C)CCC[C@]13C` [(+)-longifolene], the activity at 1 µM in test [2] stood at 0%; in test [3], 8.31%; in test [1] it was 8.34%. In addition, the activity at 10 µM in test [2] is 0%; in test [3] it was 5.37%; in test [1], 10.9%. For the same compound, the activity at 100 µM in test [2], in test [3] and in test [1] was 0% each time.
With `Cc1ccccc1C` [o-xylene], in test [1], the activity at 1 µM was determined as 8.04% and the activity at 100 µM worked out at 8.27%.
As to `C=C(C)[C@H]1CC=C(C)CC1` [limonene], the “% activation” value in test [2] was 0%; in test [3] (10 µM, 10 / OR10a), 0%; in test [3] (100 µM, 100 / OR10a), 0.05729%; in test [1] (10 µM, 10 / OR85b), 0.08814%; in test [1] (100 µM, 100 / OR85b), 0.06443%; in test [1] (1 / OR85b, 1 µM), 0.07022%.
